The values that follow come from US11590116B2 (THERAVANCE BIOPHARMA R&D IP, LLC, priority 2019, dated 2023).

Assay [1] has as its target T1, recombinant human ALK5 (TGF-βR1) protein (Homo sapiens, UniProt P36897).
T1 construct: purchased Life Technologies PR9075A
T1 sequence (P36897 34-503): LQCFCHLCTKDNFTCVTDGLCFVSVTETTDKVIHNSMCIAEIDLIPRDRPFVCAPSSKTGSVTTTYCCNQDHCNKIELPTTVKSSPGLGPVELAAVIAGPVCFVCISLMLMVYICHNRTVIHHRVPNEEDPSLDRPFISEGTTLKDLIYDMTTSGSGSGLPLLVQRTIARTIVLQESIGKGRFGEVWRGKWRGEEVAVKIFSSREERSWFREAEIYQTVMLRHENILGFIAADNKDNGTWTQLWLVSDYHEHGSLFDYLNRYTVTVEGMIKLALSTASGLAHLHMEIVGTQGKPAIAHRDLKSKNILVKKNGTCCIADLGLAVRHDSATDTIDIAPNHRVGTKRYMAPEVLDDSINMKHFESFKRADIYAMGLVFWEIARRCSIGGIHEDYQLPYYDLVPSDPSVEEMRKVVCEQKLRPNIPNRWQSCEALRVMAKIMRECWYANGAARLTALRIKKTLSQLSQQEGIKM
Description: Biochemical ALK5 (TGF-βR1) assay to measure pKi (LANCE Ultra ULight kinase assay). Particulars: apparent pKi from pIC50 by Cheng-Prusoff, read-out: ALK5 pKi (converted). The procedure, abridged:
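Compounds (10 μM to 25 pM) preincubated 60 minutes at room temperature with enzyme, then reaction run 60 minutes at 37° C with ATP added as 125 μM (5× final). Stopped with EDTA plus Eu-anti-phospho-Topoisomerase 2-alpha (Thr1342) antibody, TR-FRET read at 665 nm; pIC50 converted to pKi via Cheng-Prusoff.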

The test system of assay [2] is TGF-β-stimulated SMAD3 phosphorylation in BEAS-2B cells. Description: Cellular ALK5 potency assay, inhibition of TGF-β stimulated pSMAD3 formation in BEAS-2B cells. Particulars: Homo sapiens; inhibition of TGF-β stimulated pSMAD3 formation, BEAS-2B cells; read-out: BEAS2B pIC50 (converted). In kind it is cell-based. The procedure, abridged:
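AlphaLISA pSMAD3 read-out, beads incubated overnight. Human BEAS-2B cells: 1 h compound preincubation (37 °C, 5% CO2), then 30 min TGF-β at 10 ng/mL final, immediate lysis. Values are pIC50 relative to stimulated, compound-free baseline.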

Turning to `Cc1cccc(-c2[nH]nnc2-c2ccc3ncc(N4CCNCC4)cc3n2)n1` [Compound 479, 2-[5-(6-methyl-2-pyridyl)-1H-triazol-4-yl]-7-piperazin-1-yl-1,5-naphthyridine], the Ki in assay [1] was 0.398 to 3.16 nM. Moreover, the IC50 in assay [2] is 200 to 1260 nM.

As to `Cc1cccc(-c2[nH]cnc2-c2ccc3ncc(N4CCC(C(=O)O[C@@H]5CCNC5)CC4)cc3c2)n1` [Compound 41, [(3R)-pyrrolidin-3-yl] 1-[6-[5-(6-methyl-2-pyridyl)-1H-imidazol-4-yl]-3-quinolyl]piperidine-4-carboxylate], the Ki in assay [1] was 0.0398 to 0.316 nM. The IC50 in assay [2] was 25.1 to 158 nM.

On to `Cc1cccc(-c2[nH]ncc2-c2ccc3ncc(C(=O)OC4CCN(C)C4)cc3n2)n1` (centres unmarked) [Compound 523, (1-methylpyrrolidin-3-yl) 6-[5-(6-methyl-2-pyridyl)-1H-pyrazol-4-yl]-1,5-naphthyridine-3-carboxylate], for which the Ki in assay [1] is 0.0398 to 0.316 nM. The IC50 in assay [2] is 25.1 to 158 nM.

As for `Cc1cccc(-c2[nH]cnc2-c2ccc3ncc(C4=CCC(N(C)C)CC4)cc3c2)n1` (centres unmarked) [Compound 629, N,N-dimethyl-4-(6-(5-(6-methylpyridin-2-yl)-1H-imidazol-4-yl)quinolin-3-yl)cyclohex-3-en-1-amine], the Ki in assay [1] is under 0.0316 nM. Besides, the IC50 in assay [2] is 25.1 to 158 nM.

Take `Cc1cccc(-c2[nH]cnc2-c2ccc3ncc(-c4cncc(C(=O)O[C@H]5CCN(C)C5)c4)cc3c2)n1` [Compound 704, [(3S)-1-methylpyrrolidin-3-yl] 5-[6-[5-(6-methyl-2-pyridyl)-1H-imidazol-4-yl]-3-quinolyl]pyridine-3-carboxylate]: the Ki in assay [1] is 0.0398 to 0.316 nM. In addition, in assay [2], the IC50 is 25.1 to 158 nM.

As to `Cc1cccc(-c2n[nH]cc2-c2ccc3ncc(N4CCC(N5CCN(C)CC5)CC4)cc3c2)n1` [Compound 82, 3-(4-(4-Methylpiperazin-1-yl)piperidin-1-yl)-6-(3-(6-methylpyridin-2-yl)-1H-pyrazol-4-yl)quinoline], the Ki in assay [1] is 0.0398 to 0.316 nM. In assay [2], the IC50 is 25.1 to 158 nM.

Consider `Cc1cccc(-c2[nH]cnc2-c2ccc3ncc(-c4ccc(C(=O)OCCN5C[C@@H](C)N[C@@H](C)C5)cn4)cc3c2)n1` [Compound 1168, 2-[rac-(3S,5R)-3,5-dimethylpiperazin-1-yl]ethyl 6-[6-[5-(6-methyl-2-pyridyl)-1H-imidazol-4-yl]-3-quinolyl]pyridine-3-carboxylate], for which the Ki in assay [1] is 0.0398 to 0.316 nM. Moreover, the IC50 in assay [2] was 25.1 to 158 nM.

On to `Cc1cccc(-c2[nH]cnc2-c2ccc3ncc(C(=O)O[C@H]4CC[C@](C)(N)CC4)cc3c2)n1` [Compound 771, (4-amino-4-methyl-cyclohexyl) 6-[5-(6-methyl-2-pyridyl)-1H-imidazol-4-yl]quinoline-3-carboxylate], for which, in assay [1], the Ki is 0.0398 to 0.316 nM. Moreover, the IC50 in assay [2] was 25.1 to 158 nM.

On to `Cc1cccc(-c2[nH]cnc2-c2ccc3ncc(C(=O)OCCCN4C[C@@H](C)N[C@@H](C)C4)cc3c2)n1` [Compound 898, 3-((3S,5R)-3,5-dimethylpiperazin-1-yl)propyl 6-(5-(6-methylpyridin-2-yl)-1H-imidazol-4-yl)quinoline-3-carboxylate], for which the Ki in assay [1] was 0.0398 to 0.316 nM. Besides, the IC50 in assay [2] was 25.1 to 158 nM.

With `Cc1cccc(-c2[nH]cnc2-c2ccc3ncc(-c4cnc(C(=O)OCC5CNC5)nc4)cc3c2)n1` [Compound 1052, azetidin-3-ylmethyl 5-[6-[5-(6-methyl-2-pyridyl)-1H-imidazol-4-yl]-3-quinolyl]pyrimidine-2-carboxylate], the Ki in assay [1] was 0.398 to 3.16 nM. In assay [2], the IC50 was 200 to 1260 nM.

On to `Cc1cccc(-c2[nH]cnc2-c2ccc3ncc(C4=CC[C@H](NC(=O)C5CCNCC5)CC4)cc3c2)n1` [Compound 370, N-[(1R)-4-[6-[5-(6-methyl-2-pyridyl)-1H-imidazol-4-yl]-3-quinolyl]cyclohex-3-en-1-yl]piperidine-4-carboxamide], for which, in assay [1], the Ki was 0.0398 to 0.316 nM. The IC50 in assay [2] was 1580 to 10000 nM.

`Cc1cccc(-c2[nH]cnc2-c2ccc3ncc(-c4cc(C(=O)O)cs4)cc3c2)n1` [Compound 1082, 5-[6-[5-(6-methyl-2-pyridyl)-1H-imidazol-4-yl]-3-quinolyl]thiophene-3-carboxylic acid]: the Ki in assay [1] was under 0.0316 nM. The IC50 in assay [2] was 200 to 1260 nM.

`Cc1cccc(-c2[nH]cnc2-c2ccc3ncc(Nc4ccc(N5CCN(C(C)C)CC5)cn4)cc3c2)n1` [Compound 365, N-[5-(4-isopropylpiperazin-1-yl)-2-pyridyl]-6-[5-(6-methyl-2-pyridyl)-1H-imidazol-4-yl]quinolin-3-amine]: in assay [1], the Ki was 0.0398 to 0.316 nM. Besides, the IC50 in assay [2] was 25.1 to 158 nM.

For `Cc1cccc(-c2n[nH]cc2-c2ccc3ncc(N(C)C4CCNC4)cc3n2)n1` (racemic) [Compound 242, N-methyl-6-[3-(6-methyl-2-pyridyl)-1H-pyrazol-4-yl]-N-[rac-(3R)-pyrrolidin-3-yl]-1,5-naphthyridin-3-amine], the Ki in assay [1] was 0.0398 to 0.316 nM. Moreover, in assay [2], the IC50 was 25.1 to 158 nM.

Take `Cc1cccc(-c2[nH]cnc2-c2ccc3ncc(-c4ccc5c(c4)CCNC5)cc3c2)n1` [Compound 278, 6-[5-(6-methyl-2-pyridyl)-1H-imidazol-4-yl]-3-(1,2,3,4-tetrahydroisoquinolin-6-yl)quinoline]: the Ki in assay [1] was 0.0398 to 0.316 nM. Moreover, in assay [2], the IC50 was under 20 nM.

In the case of `COC(=O)N1CCc2nnc(-c3cnc4ccc(-c5c[nH]nc5-c5ccc(F)c(C)n5)nc4c3)cc2C1` [Compound 303, methyl 3-[6-[3-(5-fluoro-6-methyl-2-pyridyl)-1H-pyrazol-4-yl]-1,5-naphthyridin-3-yl]-7,8-dihydro-5H-pyrido[4,3-c]pyridazine-6-carboxylate], the Ki in assay [1] is 0.0398 to 0.316 nM. For the same compound, the IC50 in assay [2] was 25.1 to 158 nM.

`Cc1cccc(-c2[nH]cnc2-c2ccc3ncc(-c4ccc(CN5CCNCC5)nc4)cc3c2)n1` [Compound 1026, 6-[5-(6-methyl-2-pyridyl)-1H-imidazol-4-yl]-3-[6-(piperazin-1-ylmethyl)-3-pyridyl]quinoline]: the Ki in assay [1] is 0.0398 to 0.316 nM. Further, the IC50 in assay [2] is 25.1 to 158 nM.

As to `Cc1cccc(-c2n[nH]cc2-c2ccc3ncc(-c4cn[nH]c4-c4cccc(C)n4)cc3n2)n1` [Compound 604, 2-[3-(6-methyl-2-pyridyl)-1H-pyrazol-4-yl]-7-[5-(6-methyl-2-pyridyl)-1H-pyrazol-4-yl]-1,5-naphthyridine], the Ki in assay [1] was 0.398 to 3.16 nM. Besides, the IC50 in assay [2] was 25.1 to 158 nM.

For the compound `Cc1cccc(-c2[nH]cnc2-c2ccc3ncc(N4CCC(C(=O)O[C@@H]5CCN(C)C5)CC4)cc3c2)n1` [Compound 702, [(3R)-1-methylpyrrolidin-3-yl] 1-[6-[5-(6-methyl-2-pyridyl)-1H-imidazol-4-yl]-3-quinolyl]piperidine-4-carboxylate], the Ki in assay [1] was 0.0398 to 0.316 nM. Also, the IC50 in assay [2] is 25.1 to 158 nM.

In the case of `Cc1cccc(-c2[nH]cnc2-c2ccc3ncc(-c4ncc(C(=O)O[C@@H]5CCNC5)s4)cc3c2)n1` [Compound 1166, [(3R)-pyrrolidin-3-yl] 2-[6-[5-(6-methyl-2-pyridyl)-1H-imidazol-4-yl]-3-quinolyl]thiazole-5-carboxylate], the Ki in assay [1] was 0.0398 to 0.316 nM. In addition, the IC50 in assay [2] is 25.1 to 158 nM.

As for `Cc1cccc(-c2n[nH]cc2-c2ccc3ncc(N4CCCN(C5CCCC5)CC4)cc3n2)n1` [Compound 400, 7-(4-cyclopentyl-1,4-diazepan-1-yl)-2-[3-(6-methyl-2-pyridyl)-1H-pyrazol-4-yl]-1,5-naphthyridine], in assay [1], the Ki was 0.0398 to 0.316 nM. Besides, in assay [2], the IC50 was 200 to 1260 nM.

As to `Cc1cccc(-c2[nH]cnc2-c2ccc3ncc(C4=CCCC(N)C4)cc3c2)n1` (centres unmarked) [Compound 531, 3-[6-[5-(6-methyl-2-pyridyl)-1H-imidazol-4-yl]-3-quinolyl]cyclohex-3-en-1-amine], the Ki in assay [1] was under 0.0316 nM. In assay [2], the IC50 is under 20 nM.

As to `Cc1cccc(-c2n[nH]cc2-c2ccc3ncc(CCC(=O)N4CCN(C(C)C)CC4)cc3n2)n1` [Compound 372, 1-(4-isopropylpiperazin-1-yl)-3-[6-[3-(6-methyl-2-pyridyl)-1H-pyrazol-4-yl]-1,5-naphthyridin-3-yl]propan-1-one], the Ki in assay [1] is 0.398 to 3.16 nM. For the same compound, the IC50 in assay [2] was 25.1 to 158 nM.

Turning to `Cc1cccc(-c2[nH]cnc2-c2ccc3ncc(C4=CCC(NC(=O)CC5CNC5)CC4)cc3c2)n1` (racemic) [Compound 793, 2-(azetidin-3-yl)-N-[rac-(1R)-4-[6-[5-(6-methyl-2-pyridyl)-1H-imidazol-4-yl]-3-quinolyl]cyclohex-3-en-1-yl]acetamide], the Ki in assay [1] was 0.0398 to 0.316 nM. In addition, the IC50 in assay [2] was 200 to 1260 nM.

For `Cc1cccc(-c2[nH]cnc2-c2ccc3ncc(-c4nc(C(=O)O[C@H]5CCNC5)cs4)cc3c2)n1` [Compound 748, (S)-pyrrolidin-3-yl 2-(6-(5-(6-methylpyridin-2-yl)-1H-imidazol-4-yl)quinolin-3-yl)thiazole-4-carboxylate], the Ki in assay [1] is 0.0398 to 0.316 nM. In assay [2], the IC50 was 25.1 to 158 nM.
